The values below are quoted from earlier work in patent US20240180809A1, “METHOD FOR DYEING KERATIN MATERIAL, INCLUDING THE USE OF AN ORGANIC C1-C6 ALKOXY SILANE, A DYEING COMPOUND, AND A HEAT TREATMENT” (Henkel AG & Co. KGaA, priority 2021, published 2024).

As for `CCN(Cc1cccc(S(=O)(=O)[O-])c1)c1ccc(C(=C2C=CC(=[N+](CC)Cc3cccc(S(=O)(=O)[O-])c3)C=C2)c2ccccc2S(=O)(=O)[O-])cc1.[Na+].[Na+]` [Acid Blue 9], the water solubility result (25° C.) is recorded as “more than 20 wt. %”.
As to `O=S(=O)([O-])c1ccc(N=Nc2c(O)ccc3ccccc23)cc1.[Na+]` [Acid Orange 7, sodium salt of 4-[(2-hydroxy-1-naphthyl)azo]benzene sulphonate], the solubility in water result (25° C.) is listed as “more than 7 g/L”.
As to `Nc1cc(S(=O)(=O)[O-])cc2cc(S(=O)(=O)[O-])c(N=Nc3ccccc3)c(O)c12.[Na+].[Na+]` [Acid Red 33, disodium salt of 5-amino-4-hydroxy-3-(phenylazo)-naphthalene-2,7-disulfonate], under “25° C.”, the solubility in water was 2.5 mg/mL.
Consider `O=C([O-])c1c(Cl)c(Cl)c(Cl)c(Cl)c1-c1c2cc(Br)c(=O)c(Br)c-2oc2c(Br)c([O-])c(Br)cc12.[Na+].[Na+]` [Acid Red 92, disodium salt of 3,4,5,6-tetrachloro-2-(1,4,5,8-tetrabromo-6-hydroxy-3-oxanthene-9-yl) benzoic acid], for which the solubility in water result (25° C.) is “greater than 10 g/L”.
With `O=C([O-])C1=NN(c2ccc(S(=O)(=O)[O-])cc2)C(=O)C1N=Nc1ccc(S(=O)(=O)[O-])cc1.[Na+].[Na+].[Na+]` (stereo not drawn) [Acid Yellow 23, trisodium salt of 4,5-dihydro-5-oxo-1-(4-sulfophenyl)-4-((4-sulfophenyl)azo)-1H-pyrazole-3-carboxylic acid], the “solubility in water (in words)” value (in water at 25° C.) is recorded as “readily soluble”.
“mixture of the sodium salts of mono- and sis-sulfonic acids of 2-(2-quinolyl)-1H-indene-1,3(2H)-dione [Acid Yellow 3]”: the solubility in water (25° C.) is 20 mg/mL.
